Laboratory results: patent US10829481B2, “Benzimidazole derivatives as modulators of ROR-gamma” (Vitae Pharmaceuticals, LLC, priority 2016, dated 2020)

Experiments:
[1] = molecular target: full-length RORγt in Jurkat cells (Homo sapiens (Human), UniProt P51449); test: RORγt 5×RORE Assay in Jurkat Cells (Assay 2); type: cell-based; details: 5×RORE Nanoluc luciferase reporter
Procedure: RORγt 5×RORE Assay in Jurkat Cells (Assay 2)
Compounds described herein were tested for RORγ inverse agonist activity in a cell-based, transcriptional activity assay. Secreted Nanoluc® luciferase was used as a reporter for transcriptional activity of the full-length RORγt in Jurkat cells (ATCC, Cat. #TIB-152). […] (Promega, Cat. #N1021) using KpnI and HindIII restriction sites. […] After 5-6 hrs of incubation at 37° C./5% CO2, the cells were collected, resuspended in phenol-red free RPMI media containing 10% (v/v) delipidated FBS (Hyclone, Cat. #SH30855.03) and dispensed into 96-well clear bottom tissue culture plates (CoStar, Cat. #3603), at 80,000 cells per well. Tested compounds were added to the cells in the same media (final concentration of DMSO was 0.1% (v/v)), and the plates were incubated at 37° C./5% CO2 for 16-18 hrs. Luciferase activity in the conditioned supernatants was determined with NanoGlo® assay reagents (Promega, Cat. #N1130).

[2] = molecular target: recombinant RORγ Ligand Binding Domain (LBD) protein (Homo sapiens (Human), UniProt P51449); test: Radio-Ligand RORγ Binding Assay (Assay 1); details: competition with 25-hydroxy [26,27-3H]-cholesterol, SPA
Procedure: Radio-Ligand RORγ Binding Assay (Assay 1)
Compounds described herein were tested for ability to bind to RORγ in a cell-free competition assay with commercially available radio-ligand (RL), 25-hydroxy [26,27-^3H]-cholesterol (PerkinElmer, Cat. #NET674250UC), for a ligand binding site on a recombinant RORγ Ligand Binding Domain (LBD) protein expressed as a 6×His-Glutathione-S-Transferase (GST) fusion. The assay was performed in 96-well SPA plates (PerkinElmer, Cat. #1450-401) in 50 mM HEPES buffer, pH 7.4, containing 150 mM NaCl, 5 mM MgCl2, 10% (v/v) glycerol, 2 mM CHAPS, 0.5 mM β-octylglucopyranoside and 5 mM DTT. Tested compounds were dissolved in DMSO, and semi-log (3.162×) serial dilutions of the compounds were prepared in the same solvent. Two μL of the DMSO solutions were mixed with 28 μL of 8.6 nM 25-hydroxy [26,27-^3H]-cholesterol and 50 μL of 24 nM RORγ LBD. The plate was shaken at 700 rpm for 20 min and incubated for 10 min at rt, after which 40 μL of poly-Lys YSi SPA beads (PerkinElmer, Cat. #RPNQ0010) were added to achieve […] of the beads per well. The plate was incubated on an orbital shaker for 20 min and then for 10 min without agitation at rt. SPA signal for tritium beta radiation was registered on PerkinElmer Microbeta plate reader. […] The percent inhibition vs. concentration data were fit into a four-parameter model, and IC50 values were calculated from the fit as the concentrations corresponding to the inflection points on the dose-response curves. Inhibitory constants (Ki) were calculated using the following equation, where [RL] is the concentration in the assay and KD is a dissociation constant of 25-hydroxy [26,27-^3H]-cholesterol: […]

Chain of full-length RORγt in Jurkat cells (P51449 other isoform, or with tags, fused parts or gaps): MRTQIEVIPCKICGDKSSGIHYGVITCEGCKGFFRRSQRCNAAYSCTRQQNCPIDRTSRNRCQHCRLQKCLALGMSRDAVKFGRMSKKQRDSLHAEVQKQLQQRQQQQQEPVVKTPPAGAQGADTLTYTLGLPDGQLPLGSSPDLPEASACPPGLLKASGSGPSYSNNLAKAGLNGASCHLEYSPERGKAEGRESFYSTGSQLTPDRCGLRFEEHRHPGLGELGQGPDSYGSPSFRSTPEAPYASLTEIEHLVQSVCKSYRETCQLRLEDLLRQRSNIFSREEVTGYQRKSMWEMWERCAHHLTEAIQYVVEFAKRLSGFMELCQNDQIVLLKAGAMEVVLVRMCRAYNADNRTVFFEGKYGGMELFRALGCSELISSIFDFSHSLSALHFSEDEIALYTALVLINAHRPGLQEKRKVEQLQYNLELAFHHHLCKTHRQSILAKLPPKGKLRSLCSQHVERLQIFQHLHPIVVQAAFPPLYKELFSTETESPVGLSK
Chain of recombinant RORγ Ligand Binding Domain (LBD) protein (P51449 269-508): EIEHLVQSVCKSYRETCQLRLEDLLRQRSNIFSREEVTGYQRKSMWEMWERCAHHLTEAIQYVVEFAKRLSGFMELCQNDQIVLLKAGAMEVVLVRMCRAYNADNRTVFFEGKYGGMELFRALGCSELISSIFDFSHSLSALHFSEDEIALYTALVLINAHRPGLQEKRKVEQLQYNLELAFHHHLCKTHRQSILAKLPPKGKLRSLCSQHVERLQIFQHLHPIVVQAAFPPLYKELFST

| SMILES | IC50 [1] | Ki [2] |
| --- | --- | --- |
| CCc1nc2cc(C(=O)N[C@@H](CO)c3ccc(S(=O)(=O)CC)cc3)ccc2n1Cc1cccc2c1OC(F)(F)O2 [I-16, (R)-1-((2,2-difluorobenzo[d][1,3]dioxol-4-yl)methyl)-2-ethyl-N-(1-(4-(ethylsulfonyl)phenyl)-2-hydroxyethyl)-1H-benzo[d]imidazole-5-carboxamide] | < 100 nM | < 100 nM |
| CCS(=O)(=O)c1ccc([C@H](CO)NC(=O)c2ccc3c(c2)nc(C(F)F)n3Cc2cccc3c2OC(F)(F)O3)cc1 [I-17, (R)-1-((2,2-difluorobenzo[d][1,3]dioxol-4-yl)methyl)-2-(difluoromethyl)-N-(1-(4-(ethylsulfonyl)phenyl)-2-hydroxyethyl)-1H-benzo[d]imidazole-5-carboxamide] | < 100 nM | < 100 nM |
| CCS(=O)(=O)c1ccc([C@H](CO)NC(=O)c2ccc3c(c2)nc(C2(F)CC2)n3Cc2cccc3c2OC(F)(F)O3)cc1 [I-18, (R)-1-((2,2-difluorobenzo[d][1,3]dioxol-4-yl)methyl)-N-(1-(4-(ethylsulfonyl)phenyl)-2-hydroxyethyl)-2-(1-fluorocyclopropyl)-1H-benzo[d]imidazole-5-carboxamide] | < 100 nM | < 100 nM |
| CS(=O)(=O)c1ccc([C@@H](CO)NC(=O)c2ccc3c(c2)nc(C(F)F)n3Cc2cccc3c2OC(F)(F)O3)cc1 [I-23.2, (S)-1-((2,2-difluorobenzo[d][1,3]dioxol-4-yl)methyl)-2-(difluoromethyl)-N-(2-hydroxy-1-(4-(methylsulfonyl)phenyl)ethyl)-1H-benzo[d]imidazole-5-carboxamide] | 100 to 1000 nM | < 100 nM |
| CCS(=O)(=O)c1ccc(CNC(=O)c2ccc3c(c2)nc(C2(F)CC2)n3Cc2cccc3c2OC(F)(F)O3)cc1 [I-27, 1-((2,2-difluorobenzo[d][1,3]dioxol-4-yl)methyl)-N-(4-(ethylsulfonyl)benzyl)-2-(1-fluorocyclopropyl)-1H-benzo[d]imidazole-5-carboxamide] | < 100 nM | < 100 nM |
| CCS(=O)(=O)c1ccc(CNC(=O)c2ccc3c(c2)nc(COC)n3Cc2cccc3c2OC(F)(F)O3)cc1 [I-28, 1-((2,2-difluorobenzo[d][1,3]dioxol-4-yl)methyl)-N-(4-(ethylsulfonyl)benzyl)-2-(methoxymethyl)-1H-benzo[d]imidazole-5-carboxamide] | < 100 nM | < 100 nM |
| CCc1nc2cc(C(=O)NCc3ccc(S(=O)(=O)CC)cc3)ccc2n1Cc1cccc2c1OC(F)(F)O2 [I-29, 1-((2,2-difluorobenzo[d][1,3]dioxol-4-yl)methyl)-2-ethyl-N-(4-(ethylsulfonyl)benzyl)-1H-benzo[d]imidazole-5-carboxamide] | < 100 nM | < 100 nM |
| CCS(=O)(=O)c1ccc(CNC(=O)c2ccc3c(c2)nc(C(C)(C)C)n3Cc2cccc3c2OC(F)(F)O3)cc1 [I-30, 2-(tert-butyl)-1-((2,2-difluorobenzo[d][1,3]dioxol-4-yl)methyl)-N-(4-(ethylsulfonyl)benzyl)-1H-benzo[d]imidazole-5-carboxamide] | < 100 nM | < 100 nM |
| CCS(=O)(=O)c1ccc(CNC(=O)c2ccc3c(c2)nc(C(C)C)n3Cc2cccc3c2OC(F)(F)O3)cc1 [I-31, 1-((2,2-difluorobenzo[d][1,3]dioxol-4-yl)methyl)-N-(4-(ethylsulfonyl)benzyl)-2-isopropyl-1H-benzo[d]imidazole-5-carboxamide] | < 100 nM | < 100 nM |
| CCS(=O)(=O)c1ccc(CNC(=O)c2ccc3c(c2)nc(C)n3Cc2cccc3c2OC(F)(F)O3)cc1 [I-32, 1-((2,2-difluorobenzo[d][1,3]dioxol-4-yl)methyl)-N-(4-(ethylsulfonyl)benzyl)-2-methyl-1H-benzo[d]imidazole-5-carboxamide] | > 1000 nM | < 100 nM |
| CCS(=O)(=O)c1ccc(CNC(=O)c2ccc3c(c2)nc(CC(C)C)n3Cc2cccc3c2OC(F)(F)O3)cc1 [I-33, 1-((2,2-difluorobenzo[d][1,3]dioxol-4-yl)methyl)-N-(4-(ethylsulfonyl)benzyl)-2-isobutyl-1H-benzo[d]imidazole-5-carboxamide] | < 100 nM | < 100 nM |
| CS(=O)(=O)c1ccc(CNC(=O)c2ccc3c(c2)nc(C2CC2)n3Cc2cccc3c2OC(F)(F)O3)cc1 [I-34, 2-cyclopropyl-1-((2,2-difluorobenzo[d][1,3]dioxol-4-yl)methyl)-N-(4-(methylsulfonyl)benzyl)-1H-benzo[d]imidazole-5-carboxamide] | < 100 nM | < 100 nM |
| CNS(=O)(=O)c1ccc(CNC(=O)c2ccc3c(c2)nc(C2CC2)n3Cc2cccc3c2OC(F)(F)O3)cc1 [I-35, 2-cyclopropyl-1-((2,2-difluorobenzo[d][1,3]dioxol-4-yl)methyl)-N-(4-(N-methylsulfamoyl)benzyl)-1H-benzo[d]imidazole-5-carboxamide] | < 100 nM | < 100 nM |

The remaining lines, values ahead:

| IC50 [1] | Ki [2] | SMILES |
| --- | --- | --- |
| < 100 nM | < 100 nM | CS(=O)(=O)c1ccc([C@H](CO)NC(=O)c2ccc3c(c2)nc(C(F)(F)F)n3Cc2cccc3c2OC(F)(F)O3)cc1 [I-20.1, (R)-1-((2,2-difluorobenzo[d][1,3]dioxol-4-yl)methyl)-N-(2-hydroxy-1-(4-(methylsulfonyl)phenyl)ethyl)-2-(trifluoromethyl)-1H-benzo[d]imidazole-5-carboxamide] |
| < 100 nM | < 100 nM | CS(=O)(=O)c1ccc([C@@H](CO)NC(=O)c2ccc3c(c2)nc(C(F)(F)F)n3Cc2cccc3c2OC(F)(F)O3)cc1 [I-20.2, (S)-1-((2,2-difluorobenzo[d][1,3]dioxol-4-yl)methyl)-N-(2-hydroxy-1-(4-(methylsulfonyl)phenyl)ethyl)-2-(trifluoromethyl)-1H-benzo[d]imidazole-5-carboxamide] |
| < 100 nM | < 100 nM | CS(=O)(=O)c1ccc([C@H](CO)NC(=O)c2ccc3c(c2)nc(C2CC2)n3Cc2cccc3c2OC(F)(F)O3)cc1 [I-21, (R)-2-cyclopropyl-1-((2,2-difluorobenzo[d][1,3]dioxol-4-yl)methyl)-N-(2-hydroxy-1-(4-(methylsulfonyl)phenyl)ethyl)-1H-benzo[d]imidazole-5-carboxamide] |
| < 100 nM | < 100 nM | CS(=O)(=O)c1ccc([C@H](CO)NC(=O)c2ccc3c(c2)nc(C2CCC2)n3Cc2cccc3c2OC(F)(F)O3)cc1 [I-22, (R)-2-cyclobutyl-1-((2,2-difluorobenzo[d][1,3]dioxol-4-yl)methyl)-N-(2-hydroxy-1-(4-(methylsulfonyl)phenyl)ethyl)-1H-benzo[d]imidazole-5-carboxamide] |
| < 100 nM | < 100 nM | CS(=O)(=O)c1ccc([C@H](CO)NC(=O)c2ccc3c(c2)nc(C(F)F)n3Cc2cccc3c2OC(F)(F)O3)cc1 [I-23.1, (R)-1-((2,2-difluorobenzo[d][1,3]dioxol-4-yl)methyl)-2-(difluoromethyl)-N-(2-hydroxy-1-(4-(methylsulfonyl)phenyl)ethyl)-1H-benzo[d]imidazole-5-carboxamide] |
| < 100 nM | < 100 nM | CS(=O)(=O)c1ccc([C@H](CO)NC(=O)c2ccc3c(c2)nc(C2(F)CC2)n3Cc2cccc3c2OC(F)(F)O3)cc1 [I-24, (R)-1-((2,2-difluorobenzo[d][1,3]dioxol-4-yl)methyl)-2-(1-fluorocyclopropyl)-N-(2-hydroxy-1-(4-(methylsulfonyl)phenyl)ethyl)-1H-benzo[d]imidazole-5-carboxamide] |
| < 100 nM | < 100 nM | CCS(=O)(=O)c1ccc(CNC(=O)c2ccc3c(c2)nc(C(F)(F)F)n3Cc2cccc3c2OC(F)(F)O3)cc1 [I-25, 1-((2,2-difluorobenzo[d][1,3]dioxol-4-yl)methyl)-N-(4-(ethylsulfonyl)benzyl)-2-(trifluoromethyl)-1H-benzo[d]imidazole-5-carboxamide] |
| < 100 nM | < 100 nM | CCS(=O)(=O)c1ccc(CNC(=O)c2ccc3c(c2)nc(C2CC2)n3Cc2cccc3c2OC(F)(F)O3)cc1 [I-26, 2-cyclopropyl-1-((2,2-difluorobenzo[d][1,3]dioxol-4-yl)methyl)-N-(4-(ethylsulfonyl)benzyl)-1H-benzo[d]imidazole-5-carboxamide] |
